The values that follow come from US20260007679A1, “METHODS OF TREATING CANCER USING 3-(4-((4-(MORPHOLINOMETHYL)BENZYL)OXY)-1-OXOISOINDOLIN-2-YL)PIPERIDINE-2,6-DIONE” (Celgene Corporation, priority 2012, published 2026).

Read-outs that look alike come from different tables or passages of the source.

Common to all, as to assay type: cell-based
Test [1] has as its system Human umbilical vascular endothelial cells. As to the kind of experiment: Growth factor-induced HUVEC tube formation assay. To be noted: for VEGF-induced HUVEC tube formation (tube length and tube area): VEGF 25 ng/mL. On the procedure:
Human Umbilical Vascular Endothelial Cell Tube Formation Assay: Compounds were tested in the growth factor-induced HUVEC tube formation assay. The tube formation plates were incubated at 37° C. for 30 minutes for matrigel to polymerize. The HUVECs were starved in 0.1% BSA basal EBM2 medium for 5 hours after washing with the same medium 3 times. The cells were trypsinized and centrifuged. Then 25 μL of 4× serially diluted compounds (10, 1, 0.1, 0.01, 0.001, 0.0001, 0.00001 μM) were added in duplicate with 50 μL of 2×10^4 cells/well to tube formation plates coated with matrigel. […] of 4×VEGF (final concentration=25 ng/mL) or bFGF (final concentration=10 ng/mL) were added to the plates. The cells were then incubated overnight (˜18 hours) at 37° C. in a humidified incubator. The tubule webs were stained with calcein AM at 4 g/L in 2% FBS/IBSS for 30 minutes and images taken by fluorescence microscopy. The tubules were quantified by the MetaMorph tube formation software program for tube area and tube length.
(§1) The percentage inhibition of cell proliferation, tube formation, migration, and invasion was calculated by subtracting the result for unstimulated DMSO control from test sample results, averaging all replicates, and normalizing to the growth factor-stimulated DMSO control (0% inhibition). The IC50 values were calculated by using GraphPad Prism 5.0.

Test [2] has the same test system. Description: Growth factor-induced HUVEC invasion assay. To be noted: for IC50: Homo sapiens; for VEGF-, bFGF-, and HGF-induced HUVEC invasion: dose-dependent. On the procedure:
Human Umbilical Vascular Endothelial Cell Invasion Assay: In the HUVEC invasion assay, the concentration of human fibronectin is optimized to provide a suitable protein structure for adherent cells to attach to the membrane and allow free migration in response to an angiogenic stimulus (e.g. VEGF, bFGF, or HGF) in the lower chamber of the insert plate. HUVECs were starved in 0.1% BSA EBM2 medium for 6 hours after washing with the same medium 3 times. The cells were then trypsinized and centrifuged to remove the remaining trypsin. Then ˜0.5 to 1×10^6 cells in 125 μL/well and 125 μL of 8× serially diluted compounds (10, 1, 0.1, 0.01, 0.001 μM) were added to the upper chamber of the BD Falcon 24-well and 96-well insert plates in duplicate and incubated for ˜1 to 2 hours. (The plates contain a fluorescence blocking, microporous [3.0 μm pore size] PET membrane that has been evenly coated with human fibronectin.) Seven hundred fifty microliters of a 1.33× stock solution of VEGF (final concentration of 25 ng/mL), bFGF (final concentration of 10 ng/mL), or HGF (final concentration of 25 ng/mL) were then added to the lower chamber. The cells were incubated for 22±1 hours at 37° C. The migrated cells were stained with calcein AM at 4 μg/mL in HBSS containing 2% FBS, using 500 µL/well in 24-well plates and 200 µL/well in 96-well plates. The plates were incubated at 37° C. for 90 minutes and read in a fluorescence plate reader.
as §1

For test [3] the test system is unchanged. As to the kind of experiment: Growth factor-induced HUVEC proliferation assay. To be noted: for IC50: Homo sapiens, Endothelial cell. Here is the method:
Human Umbilical Vascular Endothelial Cells Proliferation Assay: Human umbilical vascular endothelial cells were thawed and grown in EGM2 medium until passage 3 to 6 for all proliferation assays. Human umbilical vascular endothelial cells were trypsinized, washed with 20% FBS/M199 medium and plated with the same medium at 10^4 cells/100 μL per well to 96-well cell culture plates. The plates were incubated overnight at 37° C. to allow cells to adhere. The cells were then starved in 1% FBS/M199 medium for 18 hours after washing with the same medium 3 times. For optimization of the concentration of the growth factors in the HUVEC proliferation assay, 100 µL/well of the 2× serial diluted growth factors, starting at 100 ng/mL, were added to HUVECs in duplicate for 72 hours at 37° C. in a humidified cell culture incubator with 5% CO2. For analysis of test compounds, a serial dilution of the test compounds in 0.4% DMSO/1% FBS/M199 medium in duplicate was made from the 10 mM stock. Fifty microliters per well of the serially diluted test compounds (10, 1.0, 0.1, 0.01, 0.001, 0.0001, 0.00001 μM) were added to the cells for 1 to 2 hours at 37° C. The final DMSO concentration in the cells is 0.1%. Then 50 μL of 4× final concentration of relative growth factors was added to each well in duplicate for 72 hours at 37° C. in a humidified cell culture incubator with 5% CO2. Thymidine incorporation was measured by adding one microcurie of 3H-thymidine (Amersham) in 20 μL medium to each well and incubated at 37° C. in a humidified cell culture incubator with 5% CO2 for 5 to 6 hours. The cells were then trypsinized and harvested onto UniFilter GF/C filter plates (Perkin Elmer) by using the cell harvester (Tomtec). After the plates were air dried, 20 μL/well of Microscint 20 (Packard) was added then the plates were analyzed in TopCount NXT (Packard). Each well was counted for one minute. The experiments were performed in duplicate in each of 3 donors.
as §1

The test system of test [4] is megakaryocyte progenitor cells (normal human bone marrows). As to the kind of experiment: Megakaryocyte colony formation assay. To be noted: for IC50: Homo sapiens, 14-16 days. Here is the method:
Colony formation assay was conducted with normal human bone marrows treated in semi-solid collagen matrix with compound/IL-3/IL-6/Tpo for 14-16 days, and the results are summarized in Table 7.

Where [5] appears, read: Endothelial cell, read-out: HGF-induced invasion IC50 Values.
Where [6] appears, read: Endothelial cell, read-out: VEGF-induced invasion IC50 Values.
The mark [7] stands for this setting: Endothelial cell, read-out: bFGF-induced invasion IC50 Values.
Where [8] appears, read: HUVEC, read-out: IC50, HUVEC invasion (growth factor not given).
[9] abbreviates: HUVEC, read-out: IC50 for inhibition of VEGF induced HUVEC invasion.
[10] abbreviates: read-out: bFGF (10 ng/mL) IC50 Values, bFGF-induced proliferation.
Where [11] appears, read: HGF-induced proliferation, read-out: HGF (25 ng/mL) IC50 Values.
The mark [12] stands for this setting: VEGF-induced proliferation, read-out: VEGF (25 ng/mL) IC50 Values.
The mark [13] stands for this setting: Bone Marrow ID 0090128, read-out: Immature Colony IC50.
Where [14] appears, read: Bone Marrow ID 0090128, read-out: Intermediate Colony IC50.
Where [15] appears, read: Bone Marrow ID 0090616, read-out: Immature Colony IC50.
Where [16] appears, read: Bone Marrow ID 0090616, read-out: Intermediate Colony IC50.
[17] abbreviates: Bone Marrow ID 0090714, read-out: Immature Colony IC50.
[18] abbreviates: Bone Marrow ID 0090714, read-out: Intermediate Colony IC50.

Consider `O=C1CCC(N2Cc3c(OCc4ccc(CN5CCOCC5)cc4)cccc3C2=O)C(=O)N1` (racemic) [Compound I, 3-(4-((4-(morpholinomethyl)benzyl)oxy)-1-oxoisoindolin-2-yl)piperidine-2,6-dione], for which the “VEGF-induced HUVEC tube formation (tube length and tube area)” value (“VEGF-induced HUVEC tube formation” below) in test [1] was “trend toward inhibiting”. Further, the IC50 in test [2] (setting [5]) is 590 nM; in test [2] (setting [6]) it was 0.14 nM; in test [2] (setting [7]), 0.42 nM; in test [2] (setting [8]) it was 0.4 nM; in test [2] (setting [9]) it was below 0.3 nM; in test [3] (setting [10]), 99000 nM. In addition, the IC50 in test [3] (setting [11]) is 24000 nM; in test [3] (setting [12]), above 100000 nM; in test [4] (setting [13]), 100 to 1000 nM; in test [4] (setting [14]) it was above 10000 nM; in test [4] (setting [15]), 60 nM; in test [4] (setting [16]), above 10000 nM. In addition, the figures for the IC50 in test [4] (setting [17]) and in test [4] (setting [18]) were 50 nM and above 10000 nM, respectively. For the same molecule, the “VEGF-, bFGF-, and HGF-induced HUVEC invasion” value in test [2] is recorded as “significantly inhibited”. Also, the “inhibition of VEGF-, bFGF-, or HGF-induced HUVEC proliferation” value in test [3] was “did not inhibit”. Also, in test [3] (bFGF-treated HUVECs), the “concentrations with significant enhancement of proliferation” value fell in the range of 0.01 to 1 µM.

On to `O=C1CC[C@@H](N2Cc3c(OCc4ccc(CN5CCOCC5)cc4)cccc3C2=O)C(=O)N1` [Compound I-R, (R)-3-(4-((4-(morpholinomethyl)benzyl)oxy)-1-oxoisoindolin-2-yl)piperidine-2,6-dione], for which the “VEGF-induced HUVEC tube formation” value in test [1] is reported as “trend toward inhibiting”. For the same molecule, the “inhibition of tube area and length” value in test [1] (VEGF-induced, 10 μM, p<0.05 vs stimulated DMSO control) was “significant inhibition”. For the same molecule, the IC50 was 450 nM in test [2] (setting [5]); below 0.1 nM in test [2] (setting [6]); 13 nM in test [2] (setting [7]); 13 nM in test [2] (setting [8]); below 0.3 nM in test [2] (setting [9]); 76000 nM in test [3] (setting [10]). The IC50 in test [3] (setting [11]) was 38000 nM; in test [3] (setting [12]), above 100000 nM; in test [4] (setting [13]) it was 10000 nM; in test [4] (setting [14]), above 10000 nM; in test [4] (setting [15]), 400 nM; in test [4] (setting [16]), above 10000 nM. The IC50 in test [4] (setting [17]) is 400 nM; in test [4] (setting [18]), above 10000 nM. Besides, the “VEGF-, bFGF-, and HGF-induced HUVEC invasion” value in test [2] is recorded as “significantly inhibited”. Moreover, the “inhibition of VEGF-, bFGF-, or HGF-induced HUVEC proliferation” value in test [3] was “did not inhibit”.

In the case of `O=C1CC[C@H](N2Cc3c(OCc4ccc(CN5CCOCC5)cc4)cccc3C2=O)C(=O)N1` [Compound I-S, (S)-3-(4-((4-(morpholinomethyl)benzyl)oxy)-1-oxoisoindolin-2-yl)piperidine-2,6-dione], the “VEGF-induced HUVEC tube formation” value in test [1] is listed as “trend toward inhibiting”. Besides, the IC50 in test [2] (setting [5]) is 19 nM; in test [2] (setting [6]) it was below 0.1 nM; in test [2] (setting [7]), below 0.1 nM; in test [2] (setting [8]) it was below 0.1 nM; in test [2] (setting [9]) it was below 0.3 nM; in test [3] (setting [10]) it was 52000 nM. The IC50 in test [3] (setting [11]) was 51000 nM; in test [3] (setting [12]), above 100000 nM; in test [4] (setting [13]) it was 80 nM; in test [4] (setting [14]) it was 9200 nM; in test [4] (setting [15]), 40 nM; in test [4] (setting [16]) it was 650 nM. Besides, the IC50 was 50 nM in test [4] (setting [17]) and 860 nM in test [4] (setting [18]). In test [2], the “VEGF-, bFGF-, and HGF-induced HUVEC invasion” value is recorded as “significantly inhibited”. Also, in test [3], the “inhibition of VEGF-, bFGF-, or HGF-induced HUVEC proliferation” value is recorded as “did not inhibit”. Moreover, in test [3] (VEGF-treated HUVECs), the “concentrations with significant enhancement of proliferation” value was in the range of 1 to 10 µM. Also, the “effect on megakaryocyte progenitor cells” value in test [4] is listed as “inhibited megakaryocyte progenitor cells”.
